Results reported in ChEMBL document CHEMBL4190286, “Modulating the Serotonin Receptor Spectrum of Pulicatin Natural Products” (J Nat Prod, 2017).
pEC50, pIC50, pKi: −log10 of the molar value.

Tests used:
[1] = target: T1, 5-hydroxytryptamine receptor 2B (Homo sapiens, UniProt P41595); experiment: Displacement of [3H]-LSD from human 5-HT2B receptor expressed in HEK cells after 90 mins by microbeta scintillation counting analysis; format: cell-based
[2] = target: T2, 5-hydroxytryptamine receptor 1A (Homo sapiens, UniProt P08908); experiment: Antagonist activity at 5-HT1A receptor (unknown origin) by Tango assay; format: functional
T2 sequence (P08908 whole entry): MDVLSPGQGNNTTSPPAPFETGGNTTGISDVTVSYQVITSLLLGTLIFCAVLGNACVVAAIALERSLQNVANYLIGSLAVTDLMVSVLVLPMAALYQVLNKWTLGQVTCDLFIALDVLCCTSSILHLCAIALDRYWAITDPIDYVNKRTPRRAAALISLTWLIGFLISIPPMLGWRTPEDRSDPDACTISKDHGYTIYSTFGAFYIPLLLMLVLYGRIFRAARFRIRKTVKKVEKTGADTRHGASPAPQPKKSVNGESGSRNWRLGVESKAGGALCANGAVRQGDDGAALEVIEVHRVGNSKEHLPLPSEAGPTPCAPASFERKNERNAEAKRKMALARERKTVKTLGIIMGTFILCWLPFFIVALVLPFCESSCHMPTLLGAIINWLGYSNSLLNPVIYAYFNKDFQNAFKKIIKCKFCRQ

[3] = target: 5-hydroxytryptamine receptor 6 (Homo sapiens, UniProt P50406); experiment: Displacement of [3H]-LSD from human 5-HT6 receptor expressed in HEK cells after 90 mins by microbeta scintillation counting analysis; format: cell-based
[4] = target: T3, 5-hydroxytryptamine receptor 2C (Homo sapiens, UniProt P28335); experiment: Antagonist activity at 5-HT2C receptor (unknown origin) by calcium release assay; format: functional
T3 sequence (P28335 whole entry): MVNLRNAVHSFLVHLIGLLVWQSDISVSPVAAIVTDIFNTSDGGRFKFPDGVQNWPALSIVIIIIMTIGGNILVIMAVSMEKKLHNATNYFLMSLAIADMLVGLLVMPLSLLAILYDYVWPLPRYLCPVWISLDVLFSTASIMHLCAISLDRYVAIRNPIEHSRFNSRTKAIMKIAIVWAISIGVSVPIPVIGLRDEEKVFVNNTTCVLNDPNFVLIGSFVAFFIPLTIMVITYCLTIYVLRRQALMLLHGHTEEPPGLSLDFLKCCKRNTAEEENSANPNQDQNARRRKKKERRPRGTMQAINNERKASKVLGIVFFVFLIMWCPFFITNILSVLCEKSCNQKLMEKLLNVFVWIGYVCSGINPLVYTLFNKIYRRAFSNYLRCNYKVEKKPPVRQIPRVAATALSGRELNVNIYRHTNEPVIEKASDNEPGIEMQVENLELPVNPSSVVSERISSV

[5] = target: T4, 5-hydroxytryptamine receptor 1D (Homo sapiens, UniProt P28221); experiment: Displacement of [3H]5-CT from human 5-HT1D receptor expressed in HEKT cells after 90 mins by microbeta scintillation counting analysis; format: cell-based
[6] = target: T5, 5-hydroxytryptamine receptor 7 (Homo sapiens, UniProt P34969); experiment: Displacement of [3H]-LSD from human 5-HT7A receptor expressed in HEK cells after 90 mins by microbeta scintillation counting analysis; format: cell-based
[7] = target: T6, 5-hydroxytryptamine receptor 2A (Homo sapiens, UniProt P28223); experiment: Displacement of [3H]Ketanserin from 5-HT2A (unknown origin) receptor after 90 mins by microbeta scintillation counting analysis
[8] = target: T5, 5-hydroxytryptamine receptor 7; experiment: Antagonist activity at 5-HT7A receptor (unknown origin) by Tango assay
[9] = target: T6, 5-hydroxytryptamine receptor 2A; experiment: Antagonist activity at 5-HT2A receptor (unknown origin) by calcium release assay; format: functional
[10] = target: T1, 5-hydroxytryptamine receptor 2B; experiment: Antagonist activity at 5-HT2B receptor (unknown origin) by calcium release assay; format: functional
[11] = target: T7, 5-hydroxytryptamine receptor 3A (Homo sapiens, UniProt P46098); experiment: Displacement of [3H]-GR65630 from human 5-HT3 receptor expressed in HEKT cells after 90 mins by microbeta scintillation counting analysis; format: cell-based
T7 sequence (P46098 whole entry): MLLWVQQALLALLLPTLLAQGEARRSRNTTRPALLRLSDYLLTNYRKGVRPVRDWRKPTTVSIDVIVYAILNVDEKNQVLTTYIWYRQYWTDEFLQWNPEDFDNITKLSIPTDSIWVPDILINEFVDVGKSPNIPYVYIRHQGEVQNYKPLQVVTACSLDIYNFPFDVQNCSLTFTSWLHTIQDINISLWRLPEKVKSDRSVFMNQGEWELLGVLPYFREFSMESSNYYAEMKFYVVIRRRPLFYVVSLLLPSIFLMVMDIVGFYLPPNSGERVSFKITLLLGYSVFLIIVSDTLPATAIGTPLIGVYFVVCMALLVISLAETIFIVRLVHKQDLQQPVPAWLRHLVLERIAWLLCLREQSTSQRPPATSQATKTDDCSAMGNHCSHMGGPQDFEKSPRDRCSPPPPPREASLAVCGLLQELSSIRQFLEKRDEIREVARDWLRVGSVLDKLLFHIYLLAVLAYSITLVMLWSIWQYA

[12] = target: 5-hydroxytryptamine receptor 5A (Homo sapiens, UniProt P47898); experiment: Displacement of [3H]-LSD from human 5-HT5A receptor expressed in Flp-In CHO cells after 90 mins by microbeta scintillation counting analysis; format: cell-based
[13] = target: 5-hydroxytryptamine receptor 1E (Homo sapiens, UniProt P28566); experiment: Displacement of [3H]5-HT from human 5-HT1E receptor expressed in HEK cells after 90 mins by microbeta scintillation counting analysis; format: cell-based
[14] = target: T4, 5-hydroxytryptamine receptor 1D; experiment: Antagonist activity at 5-HT1D receptor (unknown origin) by Tango assay; format: functional
[15] = target: T3, 5-hydroxytryptamine receptor 2C; experiment: Displacement of [3H]-Mesulergine from human 5-HT2C receptor expressed in HEKT cells after 90 mins by microbeta scintillation counting analysis; format: cell-based
[16] = target: T8, 5-hydroxytryptamine receptor 1B (Homo sapiens, UniProt P28222); experiment: Antagonist activity at 5-HT1B receptor (unknown origin) by Tango assay; format: functional
[17] = target: T8, 5-hydroxytryptamine receptor 1B; experiment: Displacement of [3H]5-CT from human 5-HT1B receptor expressed in HEK cells after 90 mins by microbeta scintillation counting analysis; format: cell-based
[18] = target: T8, 5-hydroxytryptamine receptor 1B; experiment: Partial agonist activity at 5-HT1B receptor (unknown origin) by Tango assay; format: functional
[19] = target: 5-hydroxytryptamine receptor 4 (Homo sapiens, UniProt Q13639); experiment: Antagonist activity at 5-HT4 receptor (unknown origin) by Tango assay; format: functional
[20] = target: T8, 5-hydroxytryptamine receptor 1B; experiment: Agonist activity at 5-HT1B receptor (unknown origin) at 2 uM by Tango assay; format: functional

5-hydroxytryptamine receptor 1E, sequence (P28566 whole entry): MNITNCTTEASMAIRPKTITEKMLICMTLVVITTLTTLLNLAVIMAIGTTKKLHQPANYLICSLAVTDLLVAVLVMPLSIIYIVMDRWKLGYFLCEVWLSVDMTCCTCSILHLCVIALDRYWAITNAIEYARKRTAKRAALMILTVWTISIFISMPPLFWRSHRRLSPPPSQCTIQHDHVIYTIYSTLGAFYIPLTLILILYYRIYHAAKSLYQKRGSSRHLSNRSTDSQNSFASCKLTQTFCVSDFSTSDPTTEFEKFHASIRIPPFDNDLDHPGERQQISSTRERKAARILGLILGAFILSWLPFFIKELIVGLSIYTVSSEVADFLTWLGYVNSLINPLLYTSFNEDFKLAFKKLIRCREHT
T8 sequence (P28222 whole entry): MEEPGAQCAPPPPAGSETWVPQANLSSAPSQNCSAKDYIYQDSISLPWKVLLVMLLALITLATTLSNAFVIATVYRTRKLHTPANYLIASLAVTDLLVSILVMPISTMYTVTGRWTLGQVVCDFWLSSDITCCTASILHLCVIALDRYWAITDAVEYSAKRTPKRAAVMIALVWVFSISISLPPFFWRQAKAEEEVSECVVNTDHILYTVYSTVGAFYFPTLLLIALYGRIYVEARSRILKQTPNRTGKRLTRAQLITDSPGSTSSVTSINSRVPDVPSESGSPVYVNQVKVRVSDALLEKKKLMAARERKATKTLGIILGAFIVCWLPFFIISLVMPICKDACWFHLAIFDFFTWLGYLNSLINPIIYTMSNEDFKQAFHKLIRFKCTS
5-hydroxytryptamine receptor 5A, sequence (P47898 whole entry): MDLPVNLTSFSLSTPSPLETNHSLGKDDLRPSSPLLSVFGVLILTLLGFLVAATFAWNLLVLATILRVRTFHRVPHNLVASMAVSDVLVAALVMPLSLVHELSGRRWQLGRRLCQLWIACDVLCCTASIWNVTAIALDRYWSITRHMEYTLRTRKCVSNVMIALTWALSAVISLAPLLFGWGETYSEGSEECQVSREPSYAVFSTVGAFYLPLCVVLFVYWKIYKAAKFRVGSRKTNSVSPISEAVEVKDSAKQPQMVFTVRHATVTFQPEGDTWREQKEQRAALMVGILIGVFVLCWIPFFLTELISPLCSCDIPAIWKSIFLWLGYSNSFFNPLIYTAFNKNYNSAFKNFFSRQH
T6 sequence (P28223 whole entry): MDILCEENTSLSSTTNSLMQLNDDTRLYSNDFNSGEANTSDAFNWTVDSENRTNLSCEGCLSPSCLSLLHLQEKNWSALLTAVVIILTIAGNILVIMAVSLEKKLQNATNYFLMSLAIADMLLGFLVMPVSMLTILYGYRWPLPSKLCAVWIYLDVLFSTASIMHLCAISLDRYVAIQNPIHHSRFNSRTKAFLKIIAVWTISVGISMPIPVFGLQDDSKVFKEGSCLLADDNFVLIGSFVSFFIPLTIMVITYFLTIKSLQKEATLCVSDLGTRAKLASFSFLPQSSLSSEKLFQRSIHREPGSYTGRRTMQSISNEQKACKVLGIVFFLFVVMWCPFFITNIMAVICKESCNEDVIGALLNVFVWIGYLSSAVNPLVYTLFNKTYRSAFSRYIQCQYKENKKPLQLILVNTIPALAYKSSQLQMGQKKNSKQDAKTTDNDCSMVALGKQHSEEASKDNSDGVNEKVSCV
T4 sequence (P28221 whole entry): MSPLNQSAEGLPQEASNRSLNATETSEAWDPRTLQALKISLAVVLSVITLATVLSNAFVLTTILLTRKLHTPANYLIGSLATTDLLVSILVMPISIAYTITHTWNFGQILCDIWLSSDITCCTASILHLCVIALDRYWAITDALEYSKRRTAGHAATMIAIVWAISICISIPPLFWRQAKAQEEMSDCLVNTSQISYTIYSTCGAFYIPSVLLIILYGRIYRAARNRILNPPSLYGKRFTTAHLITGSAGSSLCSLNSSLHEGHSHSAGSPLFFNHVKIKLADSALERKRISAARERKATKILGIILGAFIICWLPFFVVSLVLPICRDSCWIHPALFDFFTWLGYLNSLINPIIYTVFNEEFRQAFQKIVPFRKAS
5-hydroxytryptamine receptor 6, sequence (P50406 whole entry): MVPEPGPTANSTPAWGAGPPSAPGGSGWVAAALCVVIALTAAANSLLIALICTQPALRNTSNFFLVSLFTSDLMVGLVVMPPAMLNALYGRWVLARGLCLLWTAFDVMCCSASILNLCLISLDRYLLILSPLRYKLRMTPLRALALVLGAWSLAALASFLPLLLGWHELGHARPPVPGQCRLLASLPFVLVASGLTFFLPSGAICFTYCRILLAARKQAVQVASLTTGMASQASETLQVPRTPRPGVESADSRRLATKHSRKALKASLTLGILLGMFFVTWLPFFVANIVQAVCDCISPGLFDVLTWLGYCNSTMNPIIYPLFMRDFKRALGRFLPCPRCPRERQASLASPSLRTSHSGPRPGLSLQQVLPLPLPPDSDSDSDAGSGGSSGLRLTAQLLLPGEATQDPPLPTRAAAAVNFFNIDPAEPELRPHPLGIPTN
T5 sequence (P34969 whole entry): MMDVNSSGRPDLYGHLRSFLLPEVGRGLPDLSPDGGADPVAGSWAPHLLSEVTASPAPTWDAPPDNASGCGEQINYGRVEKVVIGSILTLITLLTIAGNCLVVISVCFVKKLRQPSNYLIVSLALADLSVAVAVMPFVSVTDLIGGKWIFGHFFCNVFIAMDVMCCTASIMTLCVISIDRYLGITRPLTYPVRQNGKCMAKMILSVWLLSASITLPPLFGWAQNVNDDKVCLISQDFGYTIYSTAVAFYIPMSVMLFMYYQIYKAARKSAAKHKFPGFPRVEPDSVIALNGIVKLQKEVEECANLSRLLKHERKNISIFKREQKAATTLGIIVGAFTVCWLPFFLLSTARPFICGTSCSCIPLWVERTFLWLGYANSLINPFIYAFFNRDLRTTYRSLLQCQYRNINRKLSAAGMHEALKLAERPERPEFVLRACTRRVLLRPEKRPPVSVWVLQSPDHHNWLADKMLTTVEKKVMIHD
T1 sequence (P41595 whole entry): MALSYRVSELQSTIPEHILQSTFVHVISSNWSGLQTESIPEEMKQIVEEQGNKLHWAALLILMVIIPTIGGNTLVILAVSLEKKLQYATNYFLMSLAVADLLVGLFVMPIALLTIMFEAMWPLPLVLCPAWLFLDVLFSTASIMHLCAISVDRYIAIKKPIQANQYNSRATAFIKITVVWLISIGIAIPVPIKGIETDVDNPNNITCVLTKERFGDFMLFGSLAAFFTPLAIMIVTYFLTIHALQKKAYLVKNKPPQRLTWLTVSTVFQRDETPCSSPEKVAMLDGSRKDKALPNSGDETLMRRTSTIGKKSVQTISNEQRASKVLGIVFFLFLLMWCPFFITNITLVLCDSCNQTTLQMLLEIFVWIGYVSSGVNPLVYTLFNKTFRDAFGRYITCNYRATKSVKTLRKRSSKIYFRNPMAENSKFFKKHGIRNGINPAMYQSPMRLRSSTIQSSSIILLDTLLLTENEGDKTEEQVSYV
5-hydroxytryptamine receptor 4, sequence (Q13639 whole entry): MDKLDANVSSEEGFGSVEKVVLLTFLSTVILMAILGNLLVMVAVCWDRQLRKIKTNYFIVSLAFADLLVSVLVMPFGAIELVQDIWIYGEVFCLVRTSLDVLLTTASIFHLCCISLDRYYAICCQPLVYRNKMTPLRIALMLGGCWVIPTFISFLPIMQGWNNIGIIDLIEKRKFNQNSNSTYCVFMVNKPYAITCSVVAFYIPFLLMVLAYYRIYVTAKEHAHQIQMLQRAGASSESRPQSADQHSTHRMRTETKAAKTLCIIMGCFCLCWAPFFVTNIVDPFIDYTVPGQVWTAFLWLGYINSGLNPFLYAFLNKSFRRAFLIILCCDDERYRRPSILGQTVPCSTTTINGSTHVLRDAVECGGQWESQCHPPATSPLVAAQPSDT

SMILES	pKi [1]	pIC50 [2]	pKi [3]	pIC50 [4]	pKi [5]	pKi [6]	pKi [7]	pIC50 [8]	pIC50 [9]	pIC50 [10]	pKi [11]	pKi [12]	pKi [13]	pIC50 [14]	pKi [15]	pIC50 [16]	pKi [17]	pEC50 [18]	pIC50 [19]	inhibition [20] [%]
Oc1ccccc1C1=NC(Cc2c[nH]cn2)C(c2ccccc2)S1 (racemic)	7.00	< 5.00	5.66	< 5.00	5.66	< 5.00	5.96	< 5.00	4.89	5.42	6.07	5.33	5.62	< 5.00	6.11	–	–	–	–	–
C[C@@H]1SC(c2ccccc2)=N[C@H]1Cc1c[nH]cn1 (relative stereo)	6.42	< 5.00	< 5.00	–	6.10	< 5.00	5.24	< 5.00	–	5.00	6.82	< 5.00	< 5.00	–	5.92	–	–	–	–	–
CCCCCCOc1ccc(C2=N[C@@H](CO)[C@H](C)S2)cc1 (relative stereo)	5.37	< 5.00	< 5.00	–	< 5.00	< 5.00	5.41	–	–	< 5.00	< 5.00	< 5.00	< 5.00	< 5.00	5.77	5.72	< 5.00	6.74	< 5.00	100
C[C@@H]1SC(c2ccccc2O)=N[C@H]1Cc1c[nH]cn1 (racemic)	7.33	< 5.00	5.59	5.17	5.70	5.44	5.85	–	–	6.10	6.62	< 5.00	< 5.00	–	6.85	–	–	–	–	–
COC(=O)[C@H](Cc1cnc[nH]1)NC(=O)[C@H]1N=C(c2ccccc2O)S[C@@H]1C	6.00	< 5.00	–	< 5.00	5.48	–	6.51	–	–	5.00	–	–	5.85	–	6.09	–	–	–	–	–
